Experiments:
Type in all cases: cell-based
[1] = tested on: KAS603, a Chlorella sp.; test: Culture growth: dry weight density and chlorophyll a during compound treatment; details: four 80 L cultures during the treatment period
Description: Algal growth: KAS603, a Chlorella sp. was scaled in F/2 growth medium to ˜300 L in a vertical air lift bioreactor under 12/12 artificial illumination. Growth of the culture was monitored for density, chlorophyll accumulation, and for the presence of invasive species. Growth kinetics were typical and observation of invasive species was limited (sparse bacteria) and typical. The algae were grown under nutrient rich and light limiting conditions. […] Dry Weight Analysis: 10 ml of control and treated culture samples were pelleted via centrifugation at 3000 rpm for 5 minutes. The pellet was washed 1× with dH2O to remove salts. Following a second centrifugation step, the pellet was transferred to a pre-weighed aluminum dish and dried to a constant weight at 26.5° C. Cellular Growth/Density: Cellular growth and density can be characterized by the concentration of chlorophyll a in a sample. Chlorophyll a absorbs light at 435 nm and 680 nm, which can be accurately measured spectrophotometrically. Prior to the dry weight analysis, 10 ml samples were analyzed for absorbance at 435 nm and 680 nm. Based on the established chlorophyll a standard curve, chlorophyll a was calculated and reported as “mg chlorophyll a”.

[2] = tested on: KAS603, a Chlorella sp.; test: Recovery and measurement of extracellular lipids (hexane sweep, weight, HPLC, TLC) after glyburide treatment; details: for Weights of oil recovered from outside cells following glyburide treatment: from 1 L of culture
Description: Glyburide Dosing: After 48 hours, the sodium oxamate time course was complete. A 1 L sample of each culture was collected and treated to recover oil outside the cells (if any) at t=0. The three cultures that had previously been treated with sodium oxamate were subsequently treated with 0.05 mM glyburide. Extracellular lipids in 1 L aliquots of the cultures were collected at 4 hours and 24 hours after the addition of glyburide by hexane sweep; dry cell weights were also calculated on separate aliquots of the culture. Oils recovered were analyzed via TLC and HPLC.
(§1) Algal growth: KAS603, a Chlorella sp. was scaled in F/2 growth medium to ˜300 L in a vertical air lift bioreactor under 12/12 artificial illumination. Growth of the culture was monitored for density, chlorophyll accumulation, and for the presence of invasive species. Growth kinetics were typical and observation of invasive species was limited (sparse bacteria) and typical. The algae were grown under nutrient rich and light limiting conditions.
(§2) Lipid Analyses: TLC—Dried extracts were resuspended in 100 μl of CHCl3. 2.5 μl of each sample was spotted onto silica gel matrix TLC plates (Sigma #2599) and resolved with hexane:diethyl ether:acetic acid (80:20:1). Carotenoids such as β-carotene were visible as yellow bands on the plate, while chlorophyll and chlorophyll breakdown products were visible as green or green/gray bands, respectively. Lipids other than carotenoids and chlorophyll were visualized with iodine vapors. The extracted samples were compared to commercially available lipid standards consisting of 1 μg/μl each of glyceryl trioleate (TAG), 1,3-Diolein (1,3 DAG), 1,2-dioleoyl-rac-glycerol (1,2 DAG), monoolein (MAG), and oleic acid (FFA).
Recovery and Measurement of Extracellular Lipids: Cells that were exposed to the secretion compound glyburide were swept briefly with hexane at room temperature. 50 ml of hexane was added to 1 L samples from each study group, then mixed thoroughly, but gently, by inversion. The cells were re-centrifuged and the hexane layer containing the recovered lipids was transferred to a pre-weighed vial. The hexane was evaporated and the dried lipids were re-weighed. The dried lipids were subsequently analyzed by TLC or HPLC/MS as described.

[3] = tested on: algal cells; test: Nile Red fluorescence in growth medium after glyburide; details: following treatment with glyburide
[4] = tested on: P. Parvum; test: Oil secretion in P. Parvum cultures after glyburide (surface sheen, TLC of supernatant extract)
Description: A control culture of P. Parvum was grown and split into two 500 mL cultures. Glyburide was added to one of the cultures and the culture was shaken for 24 h.
A 1 L P. parvum culture (˜2 million cells/mL) treated with oxamate was split into two subcultures of 400 mL each. Glyburide dissolved in DMSO was added to one subculture. The other subculture received the DMSO carrier (control) that the glyburide had been dissolved in. The two cultures were incubated on the shaker for 24 h and subsequently off the shaker for ˜2 h.
The cells were then pelleted and a 200 mL sample of the culture supernatant was removed from each culture. Each of the removed samples was briefly extracted with nonpolar solvent. The organic extracts were then dried down and the remainder was resuspended in an equal volume of solvent. An equal volume of each (as well as pure TAG as a standard) was loaded on a TLC plate. A chromatogram was developed and stained with iodine vapors. […] Both subcultures had similar amounts of phospholipids (PL). This is likely due to the presence of dead cell membranes in the supernatant extract. Both test samples also had either some monoglycerides (MG) or more likely, the pigment fucoxanthin.

[5] = tested on: P. Parvum; test: Nile Red fluorescence within cells after sodium oxamate; details: range of sodium oxamate concentrations
[6] = tested on: P. Parvum; test: Growth curves of oxamate treated algae (spike-in); details: small-scale cultures, oxamate added every three days, vs growth medium only
Description: Small-scale […] P. Parvum cultures were grown and treated with oxamate. Four (A-D in FIG. 13) of the small scale cultures were treated with oxamate stock in growth medium, added every three days, corresponding to the points on the curve. Two (E-F in FIG. 13) of the cultures had only growth medium added.

[7] = tested on: KAS603, a Chlorella sp.; test: Total lipid extraction with HPLC/TLC lipid profile after sodium oxamate treatment
Description: Sodium Oxamate Dosing: Sodium oxamate was added to three of the four cultures (see FIG. 1). A 1 L sample was collected at time 0, 24 and 48 hours for each culture (a total of 4 samples per time point). The algal cells were pelleted and oils extracted at each time point. Quantitative oil profiles of extracted lipids were generated by TLC and HPLC.
as §1
Total lipid extraction: 1 L samples were pelleted via centrifugation at 3000 rpm for 5 min. The pellets were resuspended in 10 ml of methanol and incubated at 65° C. for 1 h. The methanol was replaced with chloroform and incubated at 50° C. for 10 min. The chloroform was replaced with hexane and incubated at 50° C. for an additional 10 min. The extracts were pooled and distilled. The weights of the dried extracts were recorded prior to resuspension in 100 μl chloroform for TLC analysis, or in 2:1 chloroform:methanol (v/v) to a final concentration of ˜10 mg/mL and loaded for HPLC analysis (Surveyor LC Pump and Autosampler Plus, Thermo Finnegan). A splitter (Analytical Scientific Instruments) was employed to divide the sample 1:20 between a quadrapole MS (Thermo Finnegan MSQ Plus) and an ELSD (Sedere Sedex 75), respectively.
as §2

[8] = tested on: Chlorella sp.; test: Nile Red fluorescence within cells after sodium oxamate; details: range of sodium oxamate concentrations
[9] = tested on: Schizochytrium sp.; test: as above; details: range of sodium oxamate concentrations

For `COc1ccc(Cl)cc1C(=O)NCCc1ccc(S(=O)(=O)NC(=O)NC2CCCCC2)cc1` [glyburide], the “effect of compound treatment on culture growth” value [1] was “no evidence that compound treatment slowed growth”, the “β-carotene and chlorophyll outside the cells (HPLC)” value ([2]; 0.05 mM glyburide for 24 hrs) was “neither β-carotene nor chlorophyll were detected outside the cells” and the “appearance of raw hexane extractions” value ([2]; 0.05 mM glyburide, control group not coloured) was “visibly colored”. For the same compound, the “external oil recovered by hexane sweep (in words)” value ([2]; 4 hours after glyburide) was “no immediate increases in external oil”, the “external oil recovered by hexane sweep (in words)” value ([2]; 24 hours after glyburide exposure) was “significantly larger quantities of oil were recovered” and the “Weights of oil recovered from outside cells following glyburide treatment” value (“Weights of oil recovered” below) ([2]; T = 0 (at glyburide addition), cultures pre-treated 48 h with 0.3 mM sodium oxamate, listed as GLB1) was 0.0003 g. The “Weights of oil recovered” value ([2]; T = 0 (at glyburide addition), cultures pre-treated 48 h with 0.3 mM sodium oxamate, listed as GLB2) was 0.0002 g, the “Weights of oil recovered” value ([2]; T = 0 (at glyburide addition), cultures pre-treated 48 h with 0.3 mM sodium oxamate, listed as GLB3) was 0.0003 g and the “Weights of oil recovered” value ([2]; T = 4 hours after 0.05 mM glyburide, oxamate pre-treated cultures, listed as GLB1) was 0.0002 g. For the same compound, the “Weights of oil recovered” value ([2]; T = 4 hours after 0.05 mM glyburide, oxamate pre-treated cultures, listed as GLB2) was 0.0004 g, the “Weights of oil recovered” value ([2]; T = 4 hours after 0.05 mM glyburide, oxamate pre-treated cultures, listed as GLB3) was 0.0004 g and the “Weights of oil recovered” value ([2]; T = 24 hours after 0.05 mM glyburide, oxamate pre-treated cultures, listed as GLB1) was 0.0016 g. For the same compound, the “Weights of oil recovered” value ([2]; T = 24 hours after 0.05 mM glyburide, oxamate pre-treated cultures, listed as GLB2) was 0.0014 g, the “Weights of oil recovered” value ([2]; T = 24 hours after 0.05 mM glyburide, oxamate pre-treated cultures, listed as GLB3) was 0.0013 g and the “quantity of lipid species of intermediate polarity (between FFA and 1,3DG) in extracellular lipids, TLC” value ([2]; glyburide treated groups vs control) was “significantly increased”. For the same compound, the “external hydrocarbon (HPLC)” value ([2]; glyburide treated vs untreated, 24 h) was “An increase in external hydrocarbon”, the “Nile Red fluorescence in the growth medium environment” value [3] was “an increase in Nile Red fluorescence” and the “oily sheen on the culture surface” value ([4]; 500 mL culture, glyburide 24 h, no oxamate, vs control culture) was “much more prevalent”. For the same compound, the “lipid (TAG) in culture supernatant extract, TLC” value ([4]; glyburide/oxamate-treated subculture vs DMSO control on oxamate) was “increase the production and/or secretion of lipid, specifically triacylglyceride (TAG)” and the “swirls of secreted oil on the culture surface” value ([4]; oxamate treated culture, 400 mL subculture, glyburide in DMSO 24 h, control had very few swirls) was “a number of swirls on the surface”.
`NC(=O)C(=O)[O-].[Na+]` [sodium oxamate] was tested, and the “Nile Red fluorescence within cells” value [5] was “increases in Nile Red fluorescence”, the “effect of compound treatment on culture growth” value [1] was “no evidence that compound treatment slowed growth” and the cell concentrations achieved [6] was “higher cell concentrations than did the controls”. For the same compound, the “onset of culture decline” value [6] was “began to decline sooner than the controls”, the “uncharacterized polar lipids (HPLC)” value ([7]; 0.3 mM sodium oxamate at 48 h vs untreated control at time 0) was “increases in uncharacterized polar lipids” and the “chlorophyll and total lipids in total extracts (HPLC)” value ([7]; 0.3 mM sodium oxamate, treated versus untreated groups) was “increases in chlorophyll and total lipids were detected”. The “TAG accumulation in oil extracts” value ([7]; 0.3 mM sodium oxamate, up to 48 h) was “Significant TAG accumulation was not found”, the “quantity of "other" lipid species” value ([7]; oxamate treated cultures vs untreated) was “trended higher” and the “undefined lipids (UN) in total extracts by TLC” value ([7]; oxamate treated vs untreated groups) was “did not differ between treated and untreated groups”. The “Hydrocarbon (HC) and β-carotene (BC) concentrations, TLC of total extracts” value ([7]; throughout the oxamate treatment phase) was “remained consistent”, the “Nile Red fluorescence within cells” value [8] was “increases in Nile Red fluorescence” and the “Nile Red fluorescence within cells” value [9] was “increases in Nile Red fluorescence”.

From patent US10041096B2, “Methods and products for generating oils” (The Texas A&M University System, priority 2011, dated 2018)
